The values below come from patent US8927504B2, “Combined use of dipeptidyl peptidase 4 inhibitor and sweetener” (Mitsubishi Tanabe Pharma Corporation, priority 2007, dated 2015).

One assay has as its system GLP-1. The settings on record: Shima et al., Acta Endocrinologica 1990; cited from earlier work.
Assay [1] can be described thus: Body weight-reducing test using DIO mice (2), Example 6. The assay is classed as in vivo, mouse. The conditions noted are these: for Body weight gain after 12 days / Body weight gain after 13 days: high fat diet-fed C57BL/6J mice, mean ± SEM, n = 9; for fat mass (g) as compared with the control group / lean mass (g) in comparison with the control group / body weights as compared with the control group: sweetener 5 w/w % combined with Compound A′ 10 mg/100 g in-feed; for fat mass (g) as compared with the control group / lean mass (g) in comparison with the control group: body composition 15 days after dosing; for body weights as compared with the control group: each of days 2 to 13 (or day 12) after dosing. As to the method:
Testing was carried out in the same manner as (1) of Example 3 above. High fat diet-fed, male C57BL/6J mice housed until age 14 to 22 weeks were used in the test.
The study animals were used in the test after first grouping according to body weight and blood sugar level.
The animals were administered test DPP4 inhibitor and test sweetener in-feed for up to 15 days.
Body weights and food intake were measured over time after the start of administration of the test substances. Testing and analysis of measurement results were carried out in the same manner as (1) of Example 3 above.
In addition, in the case body weight reducing effect was observed, body composition was measured in the same manner as (1) of Example 3 above.
D-mannitol (Wako Pure Chemical Industries, Ltd.), melibiose (Wako Pure Chemical Industries, Ltd.) or acesulfame K (Wako Pure Chemical Industries, Ltd.) was used as sweetener and each was administered in-feed at 5 w/w %. In addition, Compound A′ was administered as DPP4 inhibitor in-feed at 10 mg/100 g.
Body weight reducing-effect was tested for the cases of combined use of each of these sweeteners and DPP4 inhibitor in accordance with the method described in (1) above (n=9 animals per group).

Assay [2] relates to active GLP-1 in plasma. Briefly: GLP-1 secretion-stimulating action by combined use of DPP4 inhibitor and sweetener (3), Example 5. The settings on record: C57BL/6J mice, mean ± SEM, n = 5. The assay is classed as in vivo, mouse. As to the method: Purified water was administered orally (10 mL/kg) as a control.
D-mannitol (Wako Pure Chemical Industries, Ltd.) at 3 g/kg, melibiose (Wako Pure Chemical Industries, Ltd.) at 6 g/kg or acesulfame K (Wako Pure Chemical Industries, Ltd.) at 3 g/kg was used as sweetener and administered orally (10 mL/kg). Purified water was administered orally (10 mL/kg) as a control.

Assay [3] relates to active GLP-1 in plasma. Kind of assay: GLP-1 secretion-stimulating action by combined use of DPP4 inhibitor and sweetener (2), Example 4. The assay is classed as in vivo, mouse. The settings on record: 1 hour after dosing, relative to 100 for Compound A′ and fructooligosaccharide 6 g/kg, C57BL/6J mice. How it is done: Male C57BL/6J mice (Clea Japan, Inc.) (7-week-old at time of use) were used in the test.
These study animals were used in the test after first fasting starting on the night prior to the test and then grouping according to body weight. The animals were orally administered test DPP4 inhibitor (or purified water as a control) (10 mL/kg). At 30 minutes after administration, the animals were then orally administered (10 mL/kg) a solution of test sweetener (or purified water as a control) followed by collecting blood samples at 0, 30, 60, 180 and 300 minutes after administration. These samples were then measured for concentrations of active GLP-1 in plasma.
Measurement of plasma active GLP-1 concentrations and analysis and testing of the measurement results were carried out in the same manner as (1) of Example 1 above.
Fructooligosaccharide (Meiji Seika Kaisha Ltd.), kestose (Meiji Seika Kaisha Ltd., GF2), raffinose (Wako Pure Chemical Industries, Ltd.), melibiose (Wako Pure Chemical Industries, Ltd.), xylooligosaccharide (Suntory Ltd.), xylose (Wako Pure Chemical Industries, Ltd.), xylitol (Wako Pure Chemical Industries, Ltd.), sorbitol (Wako Pure Chemical Industries, Ltd.), D-mannitol (Wako Pure Chemical Industries, Ltd.), erythritol (Wako Pure Chemical Industries, Ltd.), maltitol (Hayashibara Biochemical Laboratories, Inc.), sucralose (San-Ei Gen F.F.I., Inc.) or acesulfame K (Wako Pure Chemical Industries, Ltd.) was used as sweetener and administered orally (10 mL/kg) at 6 g/kg, 3 g/kg or 1 g/kg.
In addition, (2S)-2-cyano-1-[trans-4-(dimethylaminocarbonyl)cyclohexylamino]acetylpyrrolidine benzenesulfonate (hereafter referred to as Compound A′) as DPP4 inhibitor (or purified water as a control) was used at 10 mg/kg and administered orally (10 mL/kg).
Blood active GLP-1 level-increasing action was tested for the cases of combined use of DPP4 inhibitor and each type of sweetener in accordance with the method described in (1) above (n=4 to 5 animals per group).
Blood active GLP-1 concentrations (1 hour after dosing) in the groups dosed with both each type of sweetener (6 g/kg, 3 g/kg or 1 g/kg) and Compound A′ (10 mg/kg) were represented as relative values with respect to blood active GLP-1 concentrations (1 hour after dosing) in the group dosed with fructooligosaccharide (6 g/kg) and Compound A′.

Assay [4] in a line: Body weight-reducing test using DIO mice (3), Example 7. The class given is in vivo, mouse. The conditions noted are these: for Body weight gain After 8 days / Body weight gain After 15 days: sweetener in feed at 5 w/w % combined with Compound A′ in feed at 10 mg/100 g, high fat diet-fed C57BL/6J mice, mean ± SEM, n = 7. How it is done: Testing was carried out in the same manner as (1) of Example 3 above. High fat diet-fed, male C57BL/6J mice housed until age 16 weeks were used in the test.
The study animals were used in the test after first grouping according to body weight.
The animals were administered test DPP4 inhibitor and test sweetener in-feed for up to 15 days. Body weights and food intake were measured over time after the start of administration of the test substances.
Sorbitol (Wako Pure Chemical Industries, Ltd.) or erythritol (Wako Pure Chemical Industries, Ltd.) was used as sweetener and each was administered in-feed at 5 w/w %. In addition, Compound A′ was administered as DPP4 inhibitor in-feed at 10 mg/100 g. Body weight reducing effect was tested for the cases of combined use of each of these sweeteners and DPP4 inhibitor in accordance with the method described in (1) above (n=7 animals per group).

The mark [5] stands for this setting: Compound A′ alone in feed at 10 mg/100 g.
The mark [6] stands for this setting: DPP4 inhibitor 10 mg/kg orally combined with acesulfame K 3 g/kg orally.
Setting [7] is: sweetener alone 5 w/w % in-feed.
The mark [8] stands for this setting: sweetener alone in feed at 5 w/w %.
[9] abbreviates: sweetener in feed at 5 w/w % combined with Compound A′ in feed at 10 mg/100 g.
Where [10] appears, read: sweetener 3 g/kg orally combined with Compound A′ 10 mg/kg orally.
The mark [11] stands for this setting: sweetener 3 g/kg orally alone (purified water instead of DPP4 inhibitor).
Where [12] appears, read: sweetener 6 g/kg orally combined with Compound A′ 10 mg/kg orally.
Setting [13] is: sweetener 5 w/w % combined with Compound A′ 10 mg/100 g in-feed.
[14] abbreviates: sweetener alone, separate tests.

Consider `OC[C@H]1O[C@H](O[C@H]2[C@H](O)[C@@H](O)C(O)O[C@@H]2CO)[C@H](O)[C@@H](O)[C@@H]1O` (mixture of isomers) [maltose], for which the “blood GLP-1 levels following administration” value in the assay on GLP-1 is listed as “blood GLP-1 levels are increased”.

As for `CN(C)C(=O)[C@H]1CC[C@H](NCC(=O)N2CCC[C@H]2C#N)CC1.O=S(=O)(O)c1ccccc1` (relative stereo) [Compound A′, (2S)-2-cyano-1-[trans-4-(dimethylaminocarbonyl)cyclohexylamino]acetylpyrrolidine benzenesulfonate], in assay [1] (Compound A′ alone 10 mg/100 g in-feed), the “body weight as compared with the control group” value is given as “no changes in body weight as compared with the control group”. In addition, in assay [1] (setting [5]), the “Body weight gain after 12 days” value is listed as 0.6 ± 0.1 g. Further, the “Body weight gain after 13 days” value in assay [1] (setting [5]) came out at 2.0 ± 0.3 g. The “Increase in AUC of Plasma active GLP-1” value with active GLP-1 in plasma [2] (DPP4 inhibitor 10 mg/kg orally combined with D-mannitol 3 g/kg orally) was determined as 170 ± 27 pM·h; with active GLP-1 in plasma [2] (setting [6]), 142 ± 11 pM·h; in the assay with active GLP-1 in plasma [2] (DPP4 inhibitor 10 mg/kg orally combined with melibiose 6 g/kg orally) it was 228 ± 32 pM·h.

For `CC1=CC(=O)NS(=O)(=O)O1` [Acesulfame K, acesulfame potassium], in assay [1], the “fat mass (g) as compared with the control group” value was “decreased significantly”, the “lean mass (g) in comparison with the control group” value is “no change in lean mass” and the “body weights as compared with the control group” value is on record as “body weights significantly decreased as compared with the control group”. Besides, in assay [1] (setting [7]), the “body weight as compared with the control group” value is “no significant differences as compared with the control group”. Moreover, the “Body weight gain after 12 days” value in assay [1] (setting [8]) was -0.5 ± 0.3 g. In assay [1] (setting [9]), the “Body weight gain after 12 days” value was -1.0 ± 0.4 g. The “Plasma active GLP-1 concentration (relative value)” value with active GLP-1 in plasma [3] (sweetener 1 g/kg orally combined with Compound A′ 10 mg/kg orally) is listed as 149. Besides, the “Plasma active GLP-1 concentration (relative value)” value with active GLP-1 in plasma [3] (setting [10]) stood at 377. In addition, the “Increase in AUC of Plasma active GLP-1” value in the assay on active GLP-1 in plasma [2] (setting [11]) is 51 ± 1 pM·h.

Regarding `CCC(=O)N1CCN(C2CCC(C)(NCC(=O)N3CCC[C@H]3C#N)CC2)CC1` (stereo partly drawn) [Compound B, (2S)-2-cyano-1-[t-4-(4-propionyl-1-piperazinyl)-1-methyl-r-1-cyclohexylamino]acetyl pyrrolidine], the “Increase in AUC of Plasma active GLP-1” value in the assay on active GLP-1 in plasma [2] (setting [6]) turned out to be 153 ± 14 pM·h.

In the case of `OC[C@@H](O)[C@@H](O)[C@H](O)[C@H](O)CO` [D-mannitol], in assay [1], the “fat mass (g) as compared with the control group” value was “decreased significantly”, the “lean mass (g) in comparison with the control group” value is on record as “no change in lean mass” and the “body weights as compared with the control group” value was “body weights significantly decreased as compared with the control group”. Besides, in assay [1] (setting [7]), the “body weight as compared with the control group” value is on record as “no significant differences as compared with the control group”. Further, the “Body weight gain after 13 days” value in assay [1] (setting [8]) was 1.1 ± 0.5 g. Further, in assay [1] (setting [9]), the “Body weight gain after 13 days” value was determined as 0.2 ± 0.7 g. The “Plasma active GLP-1 concentration (relative value)” value in the assay with active GLP-1 in plasma [3] (setting [10]) stood at 160. The “Plasma active GLP-1 concentration (relative value)” value in the assay with active GLP-1 in plasma [3] (setting [12]) turned out to be 742. Also, in the assay on active GLP-1 in plasma [2] (setting [11]), the “Increase in AUC of Plasma active GLP-1” value was determined as 85 ± 1 pM·h.

With `OC[C@@H](O)[C@@H](O)CO` [Erythritol, erythritol], the results for the “body weights as compared with the control group” value in assay [4] (setting [13]) and in assay [4] (setting [14]) were “decreases in body weights were observed” and “decreases in body weights were not observed”, respectively. In addition, the “Body weight gain After 8 days” value in assay [4] stood at 0.2 ± 0.1 g. Moreover, the “Body weight gain After 15 days” value in assay [4] came out at 0.9 ± 0.3 g. Besides, the entries for the “Plasma active GLP-1 concentration (relative value)” value in the assay on active GLP-1 in plasma [3] (setting [10]) and in the assay on active GLP-1 in plasma [3] (setting [12]) were 147 and 461, respectively.

Regarding `OC[C@H]1O[C@@](CO)(OC[C@@]2(O[C@H]3O[C@H](CO)[C@@H](O)[C@H](O)[C@H]3O)O[C@H](CO)[C@@H](O)[C@@H]2O)[C@@H](O)[C@@H]1O` [Kestose, glucose-1,2-fructose-1,2-fructose], the “Plasma active GLP-1 concentration (relative value)” value in the assay with active GLP-1 in plasma [3] (setting [12]) was 166.

Consider `O=C[C@H](O)[C@@H](O)[C@H](O)[C@H](O)CO[C@H]1O[C@H](CO)[C@H](O)[C@H](O)[C@H]1O` [Melibiose, α-D-galactopyranosyl-(1→6)-D-glucose], for which the “body weights as compared with the control group” value in assay [1] was “body weights significantly decreased as compared with the control group”. Besides, the “body weight as compared with the control group” value in assay [1] (setting [7]) is reported as “no significant differences as compared with the control group”. The figures for the “Body weight gain after 13 days” value in assay [1] (setting [8]) and in assay [1] (setting [9]) were 2.2 ± 0.2 g and 0.9 ± 0.4 g, respectively. The “Plasma active GLP-1 concentration (relative value)” value with active GLP-1 in plasma [3] (setting [12]) amounted to 454. For the same molecule, the “Increase in AUC of Plasma active GLP-1” value with active GLP-1 in plasma [2] (sweetener 6 g/kg orally alone (purified water instead of DPP4 inhibitor)) is 95 ± 2 pM·h.

As for `OC[C@H]1O[C@H](OC[C@H]2O[C@H](O[C@]3(CO)O[C@H](CO)[C@@H](O)[C@@H]3O)[C@H](O)[C@@H](O)[C@@H]2O)[C@H](O)[C@@H](O)[C@H]1O` [Raffinose, β-D-fructofuranosyl α-D-galactopyranosyl-(1→6)-α-D-glucopyranoside], the “Plasma active GLP-1 concentration (relative value)” value with active GLP-1 in plasma [3] (setting [12]) was determined as 77.

For the molecule `OC[C@@H](O)[C@@H](O)[C@H](O)[C@@H](O)CO` [Sorbitol, sorbitol], the “body weights as compared with the control group” value in assay [4] (setting [13]) is recorded as “decreases in body weights were observed”; in assay [4] (setting [14]), “decreases in body weights were not observed”. Besides, in assay [4], the “Body weight gain After 8 days” value is -0.7 ± 0.4 g. Moreover, the “Body weight gain After 15 days” value in assay [4] came to 0.8 ± 0.3 g. Further, the “Plasma active GLP-1 concentration (relative value)” value with active GLP-1 in plasma [3] (setting [10]) came out at 286; in the assay with active GLP-1 in plasma [3] (setting [12]), 863.

Consider `OC[C@H]1O[C@H](O[C@]2(CCl)O[C@H](CCl)[C@@H](O)[C@@H]2O)[C@H](O)[C@@H](O)[C@H]1Cl` [Sucralose, sucralose], for which the “Plasma active GLP-1 concentration (relative value)” value in the assay with active GLP-1 in plasma [3] (setting [12]) was determined as 166.
